{"source": "patent US20240122926A1", "about": "“APELIN RECEPTOR MODULATORS FOR TREATING MUSCLE CONDITIONS” (priority 2022, published 2024)", "key": {"human APLNR": {"biological_target": "T1, human APLNR (Homo sapiens, UniProt P35414)", "T1 sequence (P35414 1-380)": "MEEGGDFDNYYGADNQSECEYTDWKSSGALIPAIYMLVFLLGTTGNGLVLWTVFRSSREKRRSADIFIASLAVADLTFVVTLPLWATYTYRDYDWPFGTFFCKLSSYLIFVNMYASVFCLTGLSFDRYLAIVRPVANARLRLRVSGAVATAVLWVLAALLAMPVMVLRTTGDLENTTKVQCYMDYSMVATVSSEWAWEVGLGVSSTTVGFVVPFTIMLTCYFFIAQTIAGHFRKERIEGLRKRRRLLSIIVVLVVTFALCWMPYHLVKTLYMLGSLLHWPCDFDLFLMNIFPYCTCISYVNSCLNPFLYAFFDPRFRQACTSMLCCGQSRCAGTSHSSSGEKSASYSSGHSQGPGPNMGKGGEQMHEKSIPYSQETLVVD", "assay": "cell-based", "details": "CHO, read-out: maximum effect (Emax)", "experimental": "APLNR activation was determined by β-arrestin recruitment as measured by the ProLink […] complementation technology (93-0001, DiscoveRx). In brief, CHO cells stably expressing APLNR were seeded and incubated overnight at 37° C. The compounds were tested in duplicate and diluted to obtain a 10-point curve with 3-fold serial dilutions (<1% DMSO). The compounds and cells were incubated for 3 hours at 37° C. After the incubation period the detection reagents were added and the plate chemiluminescent signal was measured after 30 min at RT."}, "[1]": {"test_system": "24-month-old C57BL/6 mice", "assay": "Activity monitoring wheel test in aged mice (frailty study)", "assay_type": "in vivo, mouse", "details": "275 ug/mL in drinking water; both experiments; average", "experimental": "The animals were housed with access to voluntary running wheels that wirelessly transmit running data to a computer for analysis. Voluntary running wheel activity levels were measured daily, and body weights were measured every 2 weeks.\nThe study concluded on Study Day 83. Activity wheel monitoring started on Study Day 1 and ended on Study Day 83 (Phase Day 64). The data was analyzed at the end of the study. […] For the frailty portion of the study, mice were assessed using an activity monitoring wheel which was monitored passively with a computer monitoring system.\nBGE-105 was administered in drinking water consumed ad libitum. The compound is mildly acidic when dissolved, resulting in a pH 4.5 solution. The deionized water was adjusted to pH 8.5 by adding 1N NaOH. […]\nThe activity-monitoring wheel is a running disk that monitors rotations. […] Activity was monitored passively and wirelessly with a computer monitoring system. Running wheel activity levels were monitored daily. […] Mouse activity levels were measured as the number of wheel revolutions per day for each mouse and converted into a daily count of kilometers run using the diameter of the wheel. Within each experimental group, the daily median value for activity was calculated. […] The daily differences between the distances run in each group were calculated and tested for an increasing trend using Kendall's rank correlation tau."}, "[2]": {"assay": "Phase 1 study BGE-105-101 Part A (SAD), pharmacokinetics after IV infusion", "assay_type": "in vivo, human", "details": "for Dose-normalized AUCinf / Dose-normalized Cmax: unit assumed; for AUC(0-t) / AUC(0-inf) / half-life / Cmax: human, plasma; for AUC(0-t) / AUC(0-inf) / half-life: intravenous; for Cmax: iv, IV infusion", "experimental": "After a baseline period of 24 hours in the clinic, all subjects receive a LD, 1-hour infusion on Day 1. After a 48-hour wash-out period, in which PK and PK/PD data is collected, subjects receive a 23-hour infusion (1-hour LD followed by a 22-hour maintenance dose). See FIG. 10 for the different dose levels in each SAD cohort. See e.g., Table 3 below. Part A is double-blinded. The cohorts of Part A is conducted sequentially starting with SAD cohort 1.\nOn Day 1 for Part A, subjects receive LD, 1-hour infusion. On Day 3, after a 48-hour washout period, subjects then receive a 23-hour infusion (1-hour LD followed by a 22-hour MD). No earlier than 24 hours after the end of infusion, subjects is discharged from the clinic on Day 5 (End of Treatment Period [EOTP]). A treatment protocol for the SAD cohorts of Part A is outlined in FIG. 12 and is described in Table 9 below.\nRelevant plasma PK parameters are derived for BGE-105 by standard noncompartmental methods and tabulated along with descriptive statistics and graphs."}, "[3]": {"test_system": "healthy volunteers aged ≥65 years", "assay": "Phase 1b bed rest study, muscle protein synthesis rate (heavy water, vastus lateralis microbiopsy)", "assay_type": "in vivo, human", "experimental": "Heavy Water Consumption and Assessments. For subjects in Part B only, heavy water, deuterated H2O (D2O), is provided to subjects to drink during the pre-treatment and treatment periods before breakfast, in the afternoon, and after fasting overnight, at timepoints described previously. Blood samples (10 mL) and urine samples are collected at timepoints described previously to assess skeletal muscle protein fractional synthetic rate (FSR).\nSkeletal muscle protein synthesis rate (%/time) for individual muscle proteins are compared first as a linear contrast including all doses versus placebo and then as individual dose comparisons to placebo.\nOne day before (baseline, D-1) and 5 (D5) and 10 (D10) days after initiation of bed rest, key muscle atrophy endpoints were measured: thigh circumference; cross-sectional area (CSA) and A-P diameter of vastus lateralis (ultrasound); ultrasound muscle quality grade, an index that quantifies fatty degeneration in muscle (ultrasound echo density); and muscle protein synthesis rate (biopsy). Parameters measured during the 10-day bed rest period include thigh circumference, muscle size, muscle quality (e.g., fatty degeneration), and muscle protein synthetic rate."}, "[4]": {"details": "SAD1 (60 mg/360 mg), Day 1, mean"}, "[5]": {"details": "SAD2 (120 mg/720 mg), Day 1, mean"}, "[6]": {"details": "SAD3 (240 mg/1440 mg), Day 1, mean"}}, "note": "“Also recorded” adds a separate entry of the source. Read-outs that look alike come from different tables or passages of the source."}
{"smiles": "COc1cccc(OC)c1-n1c(NS(=O)(=O)[C@@H](C)[C@H](C)c2ncc(C)cn2)nnc1-c1cncc(C)c1", "note": "[BGE-105, (2S,3R)—N-(4-(2,6-dimethoxyphenyl)-5-(5-methyl-3-pyridinyl)-4H-1,2,4-triazol-3-yl)-3-(5-methyl-2-pyrimidinyl)-2-butanesulfonamide]", "values": [{"measurement": "Emax", "setting": "human APLNR", "value": 114, "unit": "%"}, {"measurement": "distance run more than vehicle-treated mice at end of experimental period", "setting": "[1]", "value": "at least 1 km/day"}, {"measurement": "dose proportionality / linearity of PK", "setting": "[2]; 3 SAD cohorts, dose vs Cmax and AUC", "value": "dose proportionality; also recorded: linear"}, {"measurement": "Dose-normalized AUCinf", "setting": "[2]; [4]", "value": 0.66, "unit": "µg·h/mL/mg"}, {"measurement": "Dose-normalized Cmax", "setting": "[2]; [4]", "value": 0.12, "unit": "µg/mL/mg"}, {"measurement": "Dose-normalized AUCinf", "setting": "[2]; [5]", "value": 0.49, "unit": "µg·h/mL/mg"}, {"measurement": "Dose-normalized Cmax", "setting": "[2]; [5]", "value": 0.11, "unit": "µg/mL/mg"}, {"measurement": "Dose-normalized AUCinf", "setting": "[2]; [6]", "value": 0.5, "unit": "µg·h/mL/mg"}, {"measurement": "Dose-normalized Cmax", "setting": "[2]; [6]", "value": 0.11, "unit": "µg/mL/mg"}, {"measurement": "AUC(0-t)", "setting": "[2]; 60 mg, SAD1 (60 mg/360 mg), Day 1, mean, read-out: AUC0-24", "value": 34.7, "unit": "µg·h/mL"}, {"measurement": "AUC(0-t)", "setting": "[2]; 60 mg, SAD1 (60 mg/360 mg), Day 1, mean, read-out: AUClast", "value": 37.4, "unit": "µg·h/mL"}, {"measurement": "AUC(0-t)", "setting": "[2]; 120 mg, SAD2 (120 mg/720 mg), Day 1, mean, read-out: AUC0-24", "value": 53.7, "unit": "µg·h/mL"}, {"measurement": "AUC(0-t)", "setting": "[2]; 120 mg, SAD2 (120 mg/720 mg), Day 1, mean, read-out: AUClast", "value": 56.8, "unit": "µg·h/mL"}, {"measurement": "AUC(0-t)", "setting": "[2]; 240 mg, SAD3 (240 mg/1440 mg), Day 1, mean, read-out: AUC0-24", "value": 107, "unit": "µg·h/mL"}, {"measurement": "AUC(0-t)", "setting": "[2]; 240 mg, SAD3 (240 mg/1440 mg), Day 1, mean, read-out: AUClast", "value": 114, "unit": "µg·h/mL"}, {"measurement": "AUC(0-t)", "setting": "[2]; SAD1 (60 mg/360 mg), Day 3, mean, read-out: AUC0-24", "value": 173, "unit": "µg·h/mL"}, {"measurement": "AUC(0-t)", "setting": "[2]; SAD1 (60 mg/360 mg), Day 3, mean, read-out: AUClast", "value": 306, "unit": "µg·h/mL"}, {"measurement": "AUC(0-t)", "setting": "[2]; SAD2 (120 mg/720 mg), Day 3, mean, read-out: AUC0-24", "value": 267, "unit": "µg·h/mL"}, {"measurement": "AUC(0-t)", "setting": "[2]; SAD2 (120 mg/720 mg), Day 3, mean, read-out: AUClast", "value": 450, "unit": "µg·h/mL"}, {"measurement": "AUC(0-t)", "setting": "[2]; SAD3 (240 mg/1440 mg), Day 3, mean, read-out: AUC0-24", "value": 612, "unit": "µg·h/mL"}, {"measurement": "AUC(0-t)", "setting": "[2]; SAD3 (240 mg/1440 mg), Day 3, mean, read-out: AUClast", "value": 1060, "unit": "µg·h/mL"}, {"measurement": "AUC(0-t)", "setting": "[2]; highest dose (240 mg/1440 mg), read-out: AUClast", "value": 1060, "unit": "µg·h/mL"}, {"measurement": "AUC(0-inf)", "setting": "[2]; [4]", "value": 39.6, "unit": "µg·h/mL"}, {"measurement": "half-life", "setting": "[2]; [4]", "value": 9.1, "unit": "h"}, {"measurement": "AUC(0-inf)", "setting": "[2]; [5]", "value": 58.8, "unit": "µg·h/mL"}, {"measurement": "half-life", "setting": "[2]; [5]", "value": 8.6, "unit": "h"}, {"measurement": "AUC(0-inf)", "setting": "[2]; [6]", "value": 119, "unit": "µg·h/mL"}, {"measurement": "half-life", "setting": "[2]; [6]", "value": 8.9, "unit": "h"}, {"measurement": "Cmax", "setting": "[2]; 60 mg, SAD1 (60 mg/360 mg), Day 1, mean", "value": 7430, "unit": "ng/mL"}, {"measurement": "Cmax", "setting": "[2]; 120 mg, SAD2 (120 mg/720 mg), Day 1, mean", "value": 13700, "unit": "ng/mL"}, {"measurement": "Cmax", "setting": "[2]; 240 mg, SAD3 (240 mg/1440 mg), Day 1, mean", "value": 26700, "unit": "ng/mL"}, {"measurement": "Cmax", "setting": "[2]; SAD1 (60 mg/360 mg), Day 3, mean", "value": 10100, "unit": "ng/mL"}, {"measurement": "Cmax", "setting": "[2]; SAD2 (120 mg/720 mg), Day 3, mean", "value": 14800, "unit": "ng/mL"}, {"measurement": "Cmax", "setting": "[2]; SAD3 (240 mg/1440 mg), Day 3, mean", "value": 35600, "unit": "ng/mL"}, {"measurement": "mean normalized fraction synthetic rate, range", "setting": "[3]; BGE-105 treated patients with elevated rate, 10 days bed rest", "value": "0.18-2.2"}, {"measurement": "number of patients (out of 11) with elevated rate of muscle protein synthesis", "setting": "[3]; after 10 days of bed rest", "value": 8}, {"measurement": "decrease in the synthetic rate of muscle myofibril proteins (FSR/day) from baseline", "setting": "[3]; vastus lateralis (placebo 58%)", "value": 36, "unit": "%"}]}
